Test results reported in PubChem BioAssay (NCI).
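Here, GI50 denotes the concentration required for 50% inhibition of growth. TGI is the concentration that stops growth completely.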

Columns and labels:
Test in all cases: NCI anticancer screen, dose series, 384-well format
SW-620 colon = system: SW-620 colon
HT29 colon = system: HT29 colon
NCI-H322M lung = system: NCI-H322M lung
SNB-75 CNS = system: SNB-75 CNS
RXF 393 renal = system: RXF 393 renal
IGROV1 ovarian = system: IGROV1 ovarian
KM12 colon = system: KM12 colon
NCI-H522 lung = system: NCI-H522 lung
OVCAR-8 ovarian = system: OVCAR-8 ovarian
T-47D breast = system: T-47D breast
SK-MEL-28 melanoma = system: SK-MEL-28 melanoma
A498 renal = system: A498 renal
K-562 leukemia = system: K-562 leukemia

**Q.** Which GI50 (SW-620 colon) does the source give for `C=CC(=O)N1CCC(CNc2ncnc(N)c2-c2ccc(Oc3ccccc3)cc2)CC1` here?
**A.** 18.6 µM

**Q.** What about the TGI (SW-620 colon) of the same molecule?
**A.** 34 µM

**Q.** And the GI50 (HT29 colon)?
**A.** 25 µM

**Q.** And the TGI (HT29 colon)?
**A.** 63.1 µM

**Q.** What about the GI50 (NCI-H322M lung) of the same molecule?
**A.** 20.4 µM

**Q.** What about the TGI (NCI-H322M lung) of the same molecule?
**A.** > 69.2 µM

**Q.** What about the GI50 (SNB-75 CNS) of the same molecule?
**A.** 15 µM

**Q.** What about the TGI (SNB-75 CNS) of the same molecule?
**A.** 36.5 µM

**Q.** And the GI50 (RXF 393 renal)?
**A.** 15.1 µM

**Q.** And the TGI (RXF 393 renal)?
**A.** 36.6 µM

**Q.** What about the GI50 (IGROV1 ovarian) of the same molecule?
**A.** 14.6 µM

**Q.** What about the TGI (IGROV1 ovarian) of the same molecule?
**A.** 28.3 µM

**Q.** And the GI50 (KM12 colon)?
**A.** 23 µM

**Q.** And the TGI (KM12 colon)?
**A.** 47.6 µM

**Q.** And the GI50 (NCI-H522 lung)?
**A.** 4.12 µM

**Q.** And the TGI (NCI-H522 lung)?
**A.** 15.7 µM

**Q.** And the GI50 (OVCAR-8 ovarian)?
**A.** 21.2 µM

**Q.** What about the TGI (OVCAR-8 ovarian) of the same molecule?
**A.** > 62.2 µM

**Q.** And the GI50 (T-47D breast)?
**A.** 17.7 µM

**Q.** What about the TGI (T-47D breast) of the same molecule?
**A.** 46.6 µM

**Q.** And the GI50 (SK-MEL-28 melanoma)?
**A.** 36.4 µM

**Q.** What about the TGI (SK-MEL-28 melanoma) of the same molecule?
**A.** > 86.9 µM

**Q.** What about the GI50 (A498 renal) of the same molecule?
**A.** 17.2 µM

**Q.** And the TGI (A498 renal)?
**A.** 37 µM

**Q.** And the GI50 (K-562 leukemia)?
**A.** 15.2 µM

**Q.** What about the TGI (K-562 leukemia) of the same molecule?
**A.** 29.5 µM
